Reference: patent publication US9987279B2, “Pharmaceutical composition for prevention and/or treatment of urinary incontinence” (ASTELLAS PHARMA INC., priority 2014, dated 2018)

Columns and labels:
[1] = preclinical study; cited from earlier work
[2] = tested on: stress urinary incontinence; details: clinical study; cited from earlier work
[3] = tested on: external urethral sphincter of extracted rat urethra; assay: External urethral sphincter contractile response induced by transmural electrical stimulation using extracted rat urethra; details: extracted rat urethra strips, 10 or 30 μmol/L, 15 minutes after addition, transmural electrical stimulation 20 V, 20 Hz; FIG. 1
SD female rats = assay: Reaction increasing urethra internal pressure induced by electrical stimulation of rat pudendal nerve; format: in vivo; details: anesthetized SD female rats, 3 or 10 mg/kg intravenously, about three minutes after administration; FIG. 2
Experimental: Test to Evaluate Reinforcing Action of Compound A on Reaction Increasing Urethra Internal Pressure Induced by Electrical Stimulation of Rat Pudendal Nerve
SD female rats (Japan SLC, Inc.) having a body weight of 200-350 g were anesthetized with urethane (1.2 g/kg, sc; Sigma-Aldrich), and a catheter (PE-50; Becton Dickinson) was lodged in the jugular vein for administering the test substance. Laparotomies were performed, and the dome of the bladder was cut open to allow discharge of the urine in the bladder. A microchip pressure transducer catheter (3.5Fr; Millar Instruments) was inserted from the external urethral orifice toward the bladder to measure the urethra internal pressure. The rats were arranged prone, the back was cut open, and several left and right pudendal nerves were isolated and held in place with exciting electrodes. […] The average of the reactions increasing urethra internal pressure by electrical stimulation three times before administering the test substance was calculated as the level before administering the test substance, and the percentage of reaction increasing urethra internal pressure by electrical stimulation about three minutes after administering the test substance to the value before administering the test substance was calculated for each of the treatment groups.

rat diaphragm myofibrils = details: cited from earlier work
[4] = tested on: rat extensor digitorum longus muscle; details: rat extensor digitorum longus muscle including a fast-muscle component; cited from earlier work
rat diaphragm = details: in vitro, transmural electrical stimulation; cited from earlier work
[5] = tested on: rat extensor digitorum longus muscle; details: in vivo, electrical stimulation of the rat fibular nerve; cited from earlier work

SMILES: CNCCC(Oc1ccccc1OC)c1ccccc1 (stereo not drawn) [nisoxetine]
- incontinence induced by sneezing [1]: improved incontinence induced by sneezing
- urethra internal pressure [1]: increased urethra internal pressure

SMILES: CCOc1ccccc1O[C@@H](c1ccccc1)[C@@H]1CNCCO1 [(S,S)-reboxetine]
- efficacy on stress urinary incontinence [2]: effective for stress urinary incontinence
- urethral resistance [2]: increased urethral resistance

SMILES: NC(=O)c1ccn(-c2cnc(NC[C@]3(c4ncccc4F)C[C@H](F)C3)nc2)c1 [Compound A, 1-[2-({[trans-3-fluoro-1-(3-fluoropyridin-2-yl)cyclobutyl]methyl}amino)pyrimidin-5-yl]-1H-pyrrole-3-carboxamide]
- contractile response of the external urethral sphincter after adding test substance relative to before adding [3]: reinforced contractile response of the external urethral sphincter
- reaction increasing urethra internal pressure after administration relative to before administration (SD female rats): reinforced a reaction increasing urethra internal pressure
- shift of concentration-response curve of intracellular calcium ions concentration and muscle tension (rat diaphragm myofibrils): shift the concentration-response curve of intracellular calcium ions concentration and muscle tension to the left
- shift of concentration-response curve of intracellular calcium ions concentration and muscle tension [4]: shift the concentration-response curve of intracellular calcium ions concentration and muscle tension to the left
- contractile response of rat diaphragm (rat diaphragm): reinforcing the contractile response of a rat diaphragm
- extensor digitorum longus muscle contractile response [5]: reinforcing extensor digitorum longus muscle contractile response

SMILES: CNCC[C@H](Oc1cccc2ccccc12)c1cccs1 [duloxetine]
- adverse drug reactions [2]: undesirable adverse drug reactions such as suicide attempts were reported
- efficacy on stress urinary incontinence [2]: effective on stress urinary incontinence
